Reference: the supplement of paper PMC10307832

How the values were obtained:
Assay in all cases: relative viability (nuclei count vs DMSO), 5 days (fraction); higher = more cells survive
VX-11e + Alpelisib = compound: CC1=CN=C(N=C1C2=CNC(=C2)C(=O)N[C@H](CO)C3=CC(=CC=C3)Cl)NC4=C(C=C(C=C4)F)Cl [VX-11e] + Cc1nc(NC(=O)N2CCC[C@H]2C(N)=O)sc1-c1ccnc(C(C)(C)C(F)(F)F)c1 [Alpelisib] (partner 2 µM)
How it was run: (§1)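 Lung cancer cell lines in 1536-well plates were dosed by pin tool the day after seeding, either with one drug alone or with a fixed anchor-drug dose plus five library-drug doses (not always all listed) in √10 steps. After 5 days, cells were fixed and their nuclei stained in one step (final 0.05% Triton X-100, 1% formaldehyde, 1 ug/ml Hoechst), then counted on 4× images. Relative viability is the nuclei count in treated wells divided by that in vehicle wells. Values are medians of duplicate plates.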

VX-11e + Linsitinib = compound: CC1=CN=C(N=C1C2=CNC(=C2)C(=O)N[C@H](CO)C3=CC(=CC=C3)Cl)NC4=C(C=C(C=C4)F)Cl [VX-11e] + C[C@]1(O)C[C@@H](c2nc(-c3ccc4ccc(-c5ccccc5)nc4c3)c3c(N)nccn32)C1 [Linsitinib] (partner 1 µM)
How it was run: as §1

VX-11e + Pictilisib = compound: CC1=CN=C(N=C1C2=CNC(=C2)C(=O)N[C@H](CO)C3=CC(=CC=C3)Cl)NC4=C(C=C(C=C4)F)Cl [VX-11e] + CS(=O)(=O)N1CCN(Cc2cc3nc(-c4cccc5[nH]ncc45)nc(N4CCOCC4)c3s2)CC1 [Pictilisib] (partner 1 µM)
How it was run: as §1

VX-11e + Decitabine = compound: CC1=CN=C(N=C1C2=CNC(=C2)C(=O)N[C@H](CO)C3=CC(=CC=C3)Cl)NC4=C(C=C(C=C4)F)Cl [VX-11e] + Nc1ncn([C@H]2C[C@H](O)[C@@H](CO)O2)c(=O)n1 [Decitabine] (partner 2 µM)
How it was run: as §1

Cell Line: NCI-H2228
- relative viability (VX-11e + Alpelisib; first compound 0.04 µM): 0.631
- relative viability (VX-11e + Alpelisib; first compound 0.1265 µM): 0.922
- relative viability (VX-11e + Alpelisib; first compound 0.4 µM): 0.715
- relative viability (VX-11e + Alpelisib; first compound 1.265 µM): 0.548
- relative viability (VX-11e + Alpelisib; first compound 4 µM): 0.232
- relative viability (VX-11e + Linsitinib; first compound 0.04 µM): 0.577
- relative viability (VX-11e + Linsitinib; first compound 0.1265 µM): 0.692
- relative viability (VX-11e + Linsitinib; first compound 0.4 µM): 0.489
- relative viability (VX-11e + Linsitinib; first compound 1.265 µM): 0.308
- relative viability (VX-11e + Linsitinib; first compound 4 µM): 0.214
- relative viability (VX-11e + Pictilisib; first compound 0.04 µM): 0.355
- relative viability (VX-11e + Pictilisib; first compound 0.1265 µM): 0.464
- relative viability (VX-11e + Pictilisib; first compound 0.4 µM): 0.0994
- relative viability (VX-11e + Pictilisib; first compound 1.265 µM): 0.854
- relative viability (VX-11e + Pictilisib; first compound 4 µM): 0.188

Cell Line: SW 1573
- relative viability (VX-11e + Decitabine; first compound 0.04 µM): 0.384
- relative viability (VX-11e + Decitabine; first compound 0.1265 µM): 0.446
- relative viability (VX-11e + Decitabine; first compound 0.4 µM): 0.363
- relative viability (VX-11e + Decitabine; first compound 1.265 µM): 0.372
- relative viability (VX-11e + Decitabine; first compound 4 µM): 0.22
- relative viability (VX-11e + Alpelisib; first compound 0.04 µM): 0.791
- relative viability (VX-11e + Alpelisib; first compound 0.1265 µM): 0.825
- relative viability (VX-11e + Alpelisib; first compound 0.4 µM): 0.767
- relative viability (VX-11e + Alpelisib; first compound 1.265 µM): 0.59
- relative viability (VX-11e + Alpelisib; first compound 4 µM): 0.39
- relative viability (VX-11e + Linsitinib; first compound 0.04 µM): 1.03
- relative viability (VX-11e + Linsitinib; first compound 0.1265 µM): 0.959
- relative viability (VX-11e + Linsitinib; first compound 0.4 µM): 0.718
- relative viability (VX-11e + Linsitinib; first compound 1.265 µM): 0.78
- relative viability (VX-11e + Linsitinib; first compound 4 µM): 0.432
- relative viability (VX-11e + Pictilisib; first compound 0.04 µM): 0.509
- relative viability (VX-11e + Pictilisib; first compound 0.1265 µM): 0.522
- relative viability (VX-11e + Pictilisib; first compound 0.4 µM): 0.404
- relative viability (VX-11e + Pictilisib; first compound 1.265 µM): 0.307
- relative viability (VX-11e + Pictilisib; first compound 4 µM): 0.298

Cell Line: NCI-H2342
- relative viability (VX-11e + Decitabine; first compound 0.1265 µM): 0.797
- relative viability (VX-11e + Decitabine; first compound 0.4 µM): 0.752
- relative viability (VX-11e + Decitabine; first compound 1.265 µM): 0.787
- relative viability (VX-11e + Decitabine; first compound 4 µM): 0.6

Cell Line: A-427
- relative viability (VX-11e + Decitabine; first compound 0.04 µM): 0.559
- relative viability (VX-11e + Decitabine; first compound 0.1265 µM): 0.518
- relative viability (VX-11e + Decitabine; first compound 0.4 µM): 0.569
- relative viability (VX-11e + Decitabine; first compound 1.265 µM): 0.645
- relative viability (VX-11e + Decitabine; first compound 4 µM): 0.443
- relative viability (VX-11e + Alpelisib; first compound 0.04 µM): 0.962
- relative viability (VX-11e + Alpelisib; first compound 0.1265 µM): 1.06
- relative viability (VX-11e + Alpelisib; first compound 0.4 µM): 0.878
- relative viability (VX-11e + Alpelisib; first compound 1.265 µM): 0.667
- relative viability (VX-11e + Alpelisib; first compound 4 µM): 0.239
- relative viability (VX-11e + Linsitinib; first compound 0.04 µM): 1.14
- relative viability (VX-11e + Linsitinib; first compound 0.1265 µM): 1.08
- relative viability (VX-11e + Linsitinib; first compound 0.4 µM): 1.01
- relative viability (VX-11e + Linsitinib; first compound 1.265 µM): 0.888
- relative viability (VX-11e + Linsitinib; first compound 4 µM): 0.466
- relative viability (VX-11e + Pictilisib; first compound 0.04 µM): 0.454
- relative viability (VX-11e + Pictilisib; first compound 0.1265 µM): 0.468
- relative viability (VX-11e + Pictilisib; first compound 0.4 µM): 0.535
- relative viability (VX-11e + Pictilisib; first compound 1.265 µM): 0.422
- relative viability (VX-11e + Pictilisib; first compound 4 µM): 0.154

Cell Line: HARA
- relative viability (VX-11e + Decitabine; first compound 0.04 µM): 0.491
- relative viability (VX-11e + Decitabine; first compound 0.1265 µM): 0.417
- relative viability (VX-11e + Decitabine; first compound 0.4 µM): 0.38
- relative viability (VX-11e + Decitabine; first compound 1.265 µM): 0.365
- relative viability (VX-11e + Decitabine; first compound 4 µM): 0.467
- relative viability (VX-11e + Alpelisib; first compound 0.04 µM): 0.772
- relative viability (VX-11e + Alpelisib; first compound 0.1265 µM): 0.776
- relative viability (VX-11e + Alpelisib; first compound 0.4 µM): 0.787
- relative viability (VX-11e + Alpelisib; first compound 1.265 µM): 0.865
- relative viability (VX-11e + Alpelisib; first compound 4 µM): 0.338
- relative viability (VX-11e + Linsitinib; first compound 0.04 µM): 1.01
- relative viability (VX-11e + Linsitinib; first compound 0.1265 µM): 0.9
- relative viability (VX-11e + Linsitinib; first compound 0.4 µM): 1.02
- relative viability (VX-11e + Linsitinib; first compound 1.265 µM): 1.04
- relative viability (VX-11e + Linsitinib; first compound 4 µM): 0.417
- relative viability (VX-11e + Pictilisib; first compound 0.04 µM): 0.0961
- relative viability (VX-11e + Pictilisib; first compound 0.1265 µM): 0.425
- relative viability (VX-11e + Pictilisib; first compound 0.4 µM): 0.322
- relative viability (VX-11e + Pictilisib; first compound 1.265 µM): 0.341
- relative viability (VX-11e + Pictilisib; first compound 4 µM): 0.188
